Measured values: the supplement of paper PMC10307832

How the values were obtained:
Experiment in all cases: relative viability (nuclei count vs DMSO), 5 days (fraction); higher = more cells survive
MIM1 = compound: CC1=CSC(=NC2CCCCC2)N1/N=C/C3=C(C(=C(C=C3)O)O)O [MIM1]
Outline: (§1)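 After an overnight hold at 37 °C, lung cancer cell lines in 1536-well plates were pinned with five library-drug doses (not always all listed), each √10 from the next, on vehicle-anchored plates. The cells stayed 5 days without fresh medium, then a one-step fix, permeabilisation and Hoechst stain preceded 4× imaging and MetaXpress nuclear counts. A plate passed only with control CV under 25% and at least one doubling. Viability is the median, over plates, of treated-well nuclei relative to vehicle-well nuclei.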

Luminespib = compound: CCNC(=O)c1noc(-c2cc(C(C)C)c(O)cc2O)c1-c1ccc(CN2CCOCC2)cc1 [Luminespib]
Outline: as §1

Saracatinib = compound: CN1CCN(CCOc2cc(OC3CCOCC3)c3c(Nc4c(Cl)ccc5c4OCO5)ncnc3c2)CC1 [Saracatinib]
Outline: as §1

Nilotinib = compound: Cc1cn(-c2cc(NC(=O)c3ccc(C)c(Nc4nccc(-c5cccnc5)n4)c3)cc(C(F)(F)F)c2)cn1 [Nilotinib]
Outline: as §1

Lenalidomide = compound: Nc1cccc2c1CN(C1CCC(=O)NC1=O)C2=O [Lenalidomide]
Outline: as §1

Cell Line | relative viability (MIM1; 0.2 µM) | relative viability (MIM1; 0.6325 µM) | relative viability (MIM1; 2 µM) | relative viability (MIM1; 6.325 µM) | relative viability (MIM1; 20 µM) | relative viability (Luminespib; 0.002 µM) | relative viability (Luminespib; 0.006325 µM) | relative viability (Luminespib; 0.01 µM, anchor plate) | relative viability (Luminespib; 0.02 µM) | relative viability (Luminespib; 0.06325 µM) | relative viability (Luminespib; 0.2 µM) | relative viability (Saracatinib; 0.02 µM) | relative viability (Saracatinib; 0.2 µM) | relative viability (Saracatinib; 0.6325 µM) | relative viability (Saracatinib; 2 µM) | relative viability (Nilotinib; 0.001 µM) | relative viability (Nilotinib; 0.003162 µM) | relative viability (Nilotinib; 0.01 µM) | relative viability (Nilotinib; 0.03162 µM) | relative viability (Nilotinib; 0.1 µM) | relative viability (Lenalidomide; 0.253 µM) | relative viability (Lenalidomide; 0.8 µM) | relative viability (Lenalidomide; 2.53 µM) | relative viability (Lenalidomide; 8 µM)
NCI-H661 | 0.991 | 1.01 | 0.941 | 0.746 | 0.406 | 1.01 | 0.969 | 0.916 | 0.778 | 0.754 | 0.325 | 1.02 | 0.977 | 0.926 | 0.669 | 0.951 | 1.06 | 1.09 | 0.949 | 0.948 | 0.917 | 0.934 | 1.03 | 0.958
NCI-H3122 | 0.979 | 1.04 | 1.01 | 0.551 | 0.257 | 1.05 | 0.958 | 0.0888 | 0.627 | 0.507 | 0.117 | 0.969 | 0.717 | 0.845 | 0.803 | 1.03 | 1.21 | 1.23 | 0.971 | 0.956 | 0.999 | 1.04 | 1.01 | 1.06
EKVX | 0.94 | 1 | 0.881 | 0.604 | 0.511 | 0.956 | 0.724 | 0.851 | 0.655 | 0.878 | 0.356 | 1.03 | 0.738 | 0.966 | 0.631 | 0.823 | 1.16 | 1.15 | 0.854 | 0.659 | 0.988 | 0.803 | 1.05 | 0.846
SK-MES-1 | 1.02 | 0.986 | 0.996 | 0.766 | 0.507 | 0.986 | 0.931 | 0.831 | 0.903 | 0.171 | 0.145 | 1 | 0.894 | 0.817 | 0.579 | 0.994 | 1.13 | 1.26 | 0.924 | 0.877 | 0.988 | 0.995 | 1.06 | 0.936
LK-2 | 1.01 | 1.04 | 0.858 | 0.957 | 0.262 | 1.03 | 1.02 | 0.204 | 0.556 | 0.258 | 0.154 | 0.925 | 0.823 | 0.788 | 0.484 | 0.89 | 0.903 | 1.08 | 0.729 | 0.875 | 0.985 | 0.956 | 1.14 | 0.906
NCI-H1755 | 1 | 0.956 | 1.01 | 0.816 | 0.308 | 0.996 | 0.987 | 0.355 | 0.979 | 0.818 | 0.225 | 0.953 | 0.859 | 0.957 | 0.88 | 0.974 | 1.08 | 1.03 | 0.832 | 0.828 | 0.976 | 0.986 | 1.07 | 0.879
LCLC-103H | 1.02 | 0.976 | 0.973 | 0.742 | 0.53 | 0.982 | 1.01 | 0.954 | 0.941 | 1.02 | 0.83 | 0.944 | 0.884 | 1.02 | 0.963 | 1.01 | 1.08 | 1.12 | 0.975 | 0.804 | 0.97 | 1 | 0.988 | 0.783
NCI-H23 | 0.99 | 0.52 | 0.798 | 0.523 | 0.209 | 0.953 | 0.932 | 0.22 | 0.663 | 0.13 | 0.141 | 1.12 | 0.794 | 0.988 | 0.739 | 0.963 | 0.899 | 1.15 | 0.668 | 0.74 | 0.922 | 0.91 | 1.18 | 0.764
COR-L 105 | 1 | 0.878 | 0.986 | 0.769 | 0.412 | 0.873 | 0.913 | 0.822 | 0.627 | 0.232 | 0.24 | 1.08 | 0.868 | 0.769 | 0.542 | 1.11 | 0.915 | 1.13 | 0.87 | 0.845 | 0.976 | 0.971 | 1.05 | 1.01
EMC-BAC-2 | 1.03 | 0.727 | 0.968 | 0.816 | 0.296 | 1 | 0.553 | 1.18 | 0.648 | 0.665 | 0.302 | 0.952 | 0.943 | 0.856 | 0.763 | 0.951 | 0.915 | 0.956 | 0.857 | 0.731 | 1.15 | 0.863 | 1 | 0.493
NCI-H727 | 0.833 | 0.823 | 0.878 | 0.723 | 0.452 | 0.95 | 0.738 | 0.369 | 0.64 | 0.308 | 0.287 | 0.874 | 0.765 | 0.863 | 0.612 | 0.787 | – | 0.938 | 0.694 | 0.614 | 0.868 | 0.927 | 0.908 | 0.857
NCI-H2085 | 0.995 | 0.974 | 1.02 | 0.817 | 0.947 | 0.964 | 0.931 | 0.466 | 0.779 | 0.576 | 0.384 | 1.02 | 0.893 | 1.09 | 0.967 | 1.03 | 1.06 | 1.12 | 0.91 | 0.754 | 0.975 | 0.811 | 1.06 | 0.944
UMC-11 | 0.962 | 0.725 | 1.08 | 0.747 | 0.284 | 0.962 | 0.976 | 1.03 | 0.471 | 0.587 | 0.221 | 0.971 | 0.729 | 1.02 | 0.807 | 0.934 | 1.09 | 1.15 | 0.686 | 0.863 | 0.999 | 0.846 | 1.09 | 0.778
